“Also recorded” adds a separate entry of the source.
Tests used:
[1] = tested on: phosphatase activity associated with IRS-1; assay: Phosphatase activity associated with IRS-1 in the liver of a normal rat; type: biochemical; conditions: 200 μmol/1, p<0.05
Description: The phosphatase activity was measured on the immunoprecipitates carried out with the anti-IRS-1 antibody and insulin anti-receptor. The solubilisation protocol is the same as that for PI 3-kinase following the methodology described by Taouis et al. (J. Biol. Chem., 269, 14912, 1994). After immunoprecipitation, the phosphatase activity was measured according to the method described by Chen. et al. (J. Biol. Chem., 272, 8026, 1997). With the aim of better locating the action site of the 4-OH-Ile, its impact on phosphatase activity was studied. The phosphatase activity associated with IRS-1 was measured.

Water solubility = type: physicochemical
PI 3-kinase [2] = assay: Basal PI 3-kinase activity of the liver of obese Zucker rats (fa/fa) after chronic administration; type: in vivo, rat; conditions: 50 mg/kg i.p. for 4 weeks, sacrificed 17 hours after last administration
Description: (§1) For the determination of the PI 3-kinase activity, the tissues are ground in a buffer containing protease and phosphatase inhibitors as well as a solubilising agent (Triton), as described by Taouis et al., J. Biol. Chem., 269, 14912, 1994. After solubilisation, the supernatants are immunoprecipitated with anti-IRS-1 and the PI 3-kinase activity is measured in the immunoprecipitate. In fact, the reaction is initiated by the addition of an artificial substrate of the enzyme: phosphatidylinositol (PI) and (^33P) gamma ATP. The product of the reaction is subjected to thin layer chromatography (TLC plate) and the levels of phosphorylation of PI are measured by a STORM phospho-imager (Molecular Dynamics). The activity is expressed in arbitrary units given by the apparatus (conversion of the radioactivity to luminescence by means of a laser beam). During chronic administration for 4 weeks of 4-OH-Ile (50 mg/kg by intraperitoneal route) in obese Zucker rats (fa/fa), the PI 3-kinase activity of the liver was measured at the end of the treatment.

insulin receptor = assay: Bonding of insulin on its receptor in hepatic LMH cell lines; type: binding; conditions: LMH cells (chicken hepatocarcinoma), competition with insulin
Source text: FIG. 4, the bonding of insulin on its receptor in hepatic LMH cell lines, In FIG. 4 the comparative results concerning the bonding of isoleucine and 4-OH-Ile are given. The LMH cells used in these trials are from chicken hepatocarcinoma (Kawaguchi T. et al., Cancer Res., 47, 4460, 1987).

insulin receptor (IR) = assay: Phosphorylation of the insulin receptor in the liver of normal rats; type: in vivo; conditions: normal rat liver, single injection 200 μg/kg I.P.; comparable to insulin
PI 3-kinase [3] = assay: PI 3-kinase activity of the liver in type 2 diabetic rats; type: in vivo, rat; conditions: liver of rats with type 2 diabetes; p<0.05 for 4-OH-Ile
Description: (§2) For the determination of the PI 3-kinase activity, the tissues are ground in a buffer containing protease and phosphatase inhibitors as well as a solubilising agent (Triton), as described by Taouis et al., J. Biol. Chem., 269, 14912, 1994. After solubilisation, the supernatants are immunoprecipitated with anti-IRS-1 and the PI 3-kinase activity is measured in the immunoprecipitate. In fact, the reaction is initiated by the addition of an artificial substrate of the enzyme: phosphatidylinositol (PI) and (^33P) gamma ATP. The product of the reaction is subjected to thin layer chromatography (TLC plate) and the levels of phosphorylation of PI are measured by a STORM phospho-imager (Molecular Dynamics). The activity is expressed in arbitrary units given by the apparatus (conversion of the radioactivity to luminescence by means of a laser beam). Comparison of the Effects of Insulin and Those of 4-OH-Ile on the PI 3-Kinase Activity of the Muscle and the Liver Removed from Rats with Type 2 Diabetes (Masiello et al., Diabetes 47, 224, 1998)

[4] = Basal insulinemia and glycemia during chronic administration in type 2 diabetic rats; type: in vivo, rat
Description: The beneficial effect of 4-hydroxyisoleucine against relative hyperinsulinemia has been researched in vivo during chronic administration (for one month) of plant amino acid (25 mg/kg/day, by intraperitoneal route) on rats made non insulin dependant diabetic (type 2 diabetes) by joint injections of nicotinamide and streptozotocin (Masiello et al., Diabetes, 47, 224, 1998). Regular blood samples are taken from the caudal vein of the rats made it possible to evaluate the level of plasmatic insulin using a radio-immunological method (Herbert et al., J. Clin. Endocr., 25. 1375, 1965), 15 hours after injection of the product which took place at 5.30 pm. In these same samples, the plasmatic glucose level was measured using an enzymatic method (Trinder P., J. Clin. Pathol. 22, 158, 1969).

[5] = tested on: PI 3-kinase associated with the insulin receptor; assay: PI 3-kinase activity associated with the insulin receptor in the liver of a normal rat; type: in vivo; conditions: 18 mg/kg I.P., p<0.05
Description: as §1, with “The PI 3-kinase activities of the PDGF receptor and of the insulin receptor in the presence or the absence” for “During chronic administration for 4 weeks”, “(18” for “(50”, “I.P.) were compared following” for “by intraperitoneal route) in obese Zucker rats (fa/fa),”, “protocol already described.” for “PI 3-kinase activity of the liver was measured at the end of the treatment.”

PI 3-kinase [6] = assay: PI 3-kinase activity of the liver (anti-IRS-1 immunoprecipitates), normal rats; type: in vivo, rat; conditions: normal Wistar rats, i.p., insulin 100 U/kg, 4-OH-Ile 18 mg/kg, 15 min after injection; p<0.05
Description: (§3) The PI 3-kinase activity was measured on immunoprecipitates carried out with the anti-IRS-1 antibody. This made it possible to determine the enzymatic activity associated with the action of insulin and to compare it to the action induced by 4-OH-Ile. Normal male Wistar rats (IFFA CREDO strain, France) received, via intraperitoneal injection, either ordinary insulin on its own (100 U/kg) or 4-OH-Ile on its own (18 mg/kg), or insulin combined with 4-OH-Ile in the same doses. The control rats received sodium chloride at 9‰ via intraperitoneal route. Fifteen minutes after the injection, the animals were sacrificed and the peripheral tissues (liver, muscle) were immediately removed and frozen in liquid nitrogen. […] After solubilisation, the supernatants are immunoprecipitated with anti-IRS-1 and the PI 3-kinase activity is measured in the immunoprecipitate. […] The product of the reaction is subjected to thin layer chromatography (TLC plate) and the levels of phosphorylation of PI are measured by a STORM phospho-imager (Molecular Dynamics). The activity is expressed in arbitrary units given by the apparatus (conversion of the radioactivity to luminescence by means of a laser beam).

PI 3-kinase [7] = assay: PI 3-kinase activity of the muscle in type 2 diabetic rats; type: in vivo, rat; conditions: muscle of rats with type 2 diabetes; p<0.01 for 4-OH-Ile
Description: as §2

PI 3-kinase [8] = assay: PI 3-kinase activity of muscle (anti-IRS-1 immunoprecipitates), normal rats; type: in vivo, rat; conditions: normal Wistar rats, i.p., insulin 100 U/kg, 4-OH-Ile 18 mg/kg, 15 min after injection
Description: as §3

IRS-1 = assay: Phosphorylation of IRS-1 in the liver of normal rats; type: in vivo; conditions: normal rat liver, single injection 200 μg/kg I.P.; comparable to insulin

phosphatase activity associated with IRS-1 [1] | solubility in water (Water solubility) | basal activity of PI 3-kinase of the liver (PI 3-kinase [2]) | activation (phosphorylation) of the insulin receptor (IR) (insulin receptor (IR)) | PI 3-kinase activity associated with the insulin receptor [5] | Molecule | bonding to the insulin membrane receptor of the hepatocyte (insulin receptor) | hepatic PI 3-kinase activity (PI 3-kinase [3]) | insulinemia (plasmatic insulin) ([4]; type 2 diabetic rats (nicotinamide/streptozotocin), 25 mg/kg/day i.p. for one month, 15 hours after injection) | glycemia ([4]; type 2 diabetic rats, 25 mg/kg/day i.p., at the end of the treatment) | plasmatic insulin after cessation of the treatment ([4]; type 2 diabetic rats, after cessation of 25 mg/kg/day i.p. treatment) | hepatic PI 3-kinase activity (PI 3-kinase [6]) | muscular PI 3-kinase activity (PI 3-kinase [7]) | PI 3-kinase activity of muscle (PI 3-kinase [8]) | activation (phosphorylation) of IRS-1 (IRS-1)
significantly inhibits | hydrosoluble | is increased | induces the activation | the only one increased | CC(O)C(C)C(N)C(=O)O (stereo not drawn) [4-OH-Ile, 4-hydroxyisoleucine] | has no bond with this receptor; also recorded: does not recognise the insulin receptor | the same effect as insulin with the same intensity; also recorded: significantly stimulates | significantly lowering | slight reduction | again rises to regain values close to those observed before the treatment | significantly stimulate | the same effect as insulin with the same intensity; also recorded: significantly stimulates | has a comparable effect | induces the activation
– | – | – | – | – | insulin [reference compound] | – | activates | – | – | – | significantly stimulate | activates | clearly stimulates | –

Reference: patent US7402611B1, “Use of amino acids for making medicines for treating to insulin-resistance” (Innodia Inc., priority 1999, dated 2008)
